Legend:
[1] = target: human dopamine D2 receptor (Homo sapiens, UniProt P14416); conditions: cited from earlier work
Chain of human dopamine D2 receptor (P14416 whole entry): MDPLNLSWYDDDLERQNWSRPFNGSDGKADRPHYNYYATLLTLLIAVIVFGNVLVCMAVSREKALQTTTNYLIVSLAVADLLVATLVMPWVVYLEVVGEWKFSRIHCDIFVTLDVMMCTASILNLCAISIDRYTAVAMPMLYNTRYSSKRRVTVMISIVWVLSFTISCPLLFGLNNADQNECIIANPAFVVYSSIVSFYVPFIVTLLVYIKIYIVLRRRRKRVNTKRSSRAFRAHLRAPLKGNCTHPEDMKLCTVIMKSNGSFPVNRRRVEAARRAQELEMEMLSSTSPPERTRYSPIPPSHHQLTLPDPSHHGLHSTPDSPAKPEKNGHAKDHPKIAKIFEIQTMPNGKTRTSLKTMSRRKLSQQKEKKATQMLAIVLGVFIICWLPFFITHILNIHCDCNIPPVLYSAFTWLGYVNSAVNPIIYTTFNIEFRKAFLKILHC

melting point | SMILES | activity at the human dopamine D2 receptor [1]
168 to 169 °C | O=S(=O)(c1ccc(Cn2cnnn2)cc1)C1CCN(CCc2ccc(F)cc2F)CC1 [Example 12, 1-[2-(2,4-Difluorophenyl)ethyl]-4-[4-(tetrazol-1-ylmethyl)phenylsulphonyl]piperidine] | 
 | COc1cccc(C(O)C2CCN(CCc3ccc(F)cc3)CC2)c1OC (stereo not drawn) [MDL-100,907, (+)-α-(2,3-dimethoxyphenyl)-1-[2-(4-fluorophenyl)ethyl]-4-piperidinemethanol] | essentially devoid of activity

— patent US6559166B1, “Phenylsulphonyl derivatives as 5-HT receptor ligands” (Merck Sharp & Dohme Ltd., priority 1999, dated 2003)
